Each structure is given as a SMILES string. pIC50: −log10 of the molar value. Where a name gives a salt, the structure may show the parent alone. Where only a bound is given, the exact number is not on record here.

In the assay the target is TrkA (Homo sapiens (Human), UniProt P04629). Nature of the assay: TrkA Omnia Assay. Type of assay: biochemical. The conditions noted are these: averaged IC50; 20 nM enzyme, 500 μM ATP, 10 μM peptide substrate. In a few lines: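 Recombinant TrkA (20 nM) preincubated 10 min at ambient temperature with compound, then Omnia Tyr Peptide #4 (10 μM) and ATP (500 μM) added in 25 mM MOPS pH 7.5, 5 mM MgCl2, 0.005% Triton X-100. Fluorescence (ex 360/em 485 nm) followed continuously for 70 min; IC50 from initial rates by 4- or 5-parameter logistic fit.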
Sequence of TrkA (P04629 33-796): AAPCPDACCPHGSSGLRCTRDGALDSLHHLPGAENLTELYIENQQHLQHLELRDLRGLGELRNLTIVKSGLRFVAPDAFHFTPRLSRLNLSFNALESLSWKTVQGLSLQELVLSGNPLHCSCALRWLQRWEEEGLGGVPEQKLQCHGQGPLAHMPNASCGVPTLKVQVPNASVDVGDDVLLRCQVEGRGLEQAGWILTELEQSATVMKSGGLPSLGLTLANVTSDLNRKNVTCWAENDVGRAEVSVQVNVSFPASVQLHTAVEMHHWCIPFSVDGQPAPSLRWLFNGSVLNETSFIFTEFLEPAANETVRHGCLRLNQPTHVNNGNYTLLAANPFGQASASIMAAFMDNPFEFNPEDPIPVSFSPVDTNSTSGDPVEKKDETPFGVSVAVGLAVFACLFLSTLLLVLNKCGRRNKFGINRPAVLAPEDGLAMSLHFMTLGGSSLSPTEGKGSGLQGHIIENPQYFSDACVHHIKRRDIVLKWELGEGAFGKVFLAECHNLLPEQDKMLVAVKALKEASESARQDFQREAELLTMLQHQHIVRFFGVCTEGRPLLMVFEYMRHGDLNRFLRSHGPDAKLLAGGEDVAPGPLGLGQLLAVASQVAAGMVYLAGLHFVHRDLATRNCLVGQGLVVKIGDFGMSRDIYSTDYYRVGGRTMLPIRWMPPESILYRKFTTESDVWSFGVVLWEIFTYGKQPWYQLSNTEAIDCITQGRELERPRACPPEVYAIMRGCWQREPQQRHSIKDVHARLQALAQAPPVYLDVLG
For the compound `COCCN1C[C@@H](NC(=O)Nc2c(C)c(OC[C@H](C)O)nn2-c2ccccc2)[C@H](c2ccc(F)cc2)C1` [Example 368, 1-((3S,4R)-4-(4-fluorophenyl)-1-(2-methoxyethyl)pyrrolidin-3-yl)-3-(3-((S)-2-hydroxypropoxy)-4-methyl-1-phenyl-1H-pyrazol-5-yl)urea], the pIC50 (commonly the negative decadic logarithm of the IC50, by convention in mol/L) is more than 7.00.
Consider `COCCN1C[C@@H](NC(=O)Nc2c(C)c(OCC(F)(F)F)nn2-c2ccccc2)[C@H](c2ccc(F)cc2)C1` [Example 476, 1-((3S,4R)-4-(4-fluorophenyl)-1-(2-methoxyethyl)pyrrolidin-3-yl)-3-(4-methyl-1-phenyl-3-(2,2,2-trifluoroethoxy)-1H-pyrazol-5-yl)urea], for which the negative logarithm of the IC50 (pIC50) is more than 7.00.
Turning to `COCCN1C[C@@H](NC(=O)Nc2c(C)c(OC[C@H]3COC(C)(C)O3)nn2-c2ccccc2)[C@H](c2cc(F)cc(F)c2)C1` [Example 393, 1-((3S,4R)-4-(3,5-difluorophenyl)-1-(2-methoxyethyl)pyrrolidin-3-yl)-3-(3-(((S)-2,2-dimethyl-1,3-dioxolan-4-yl)methoxy)-4-methyl-1-phenyl-1H-pyrazol-5-yl)urea], the pIC50 was more than 7.00.
With `Cc1c(-c2cnn(C)c2)nn(-c2ccccc2)c1NC(=O)N[C@@H]1CN(Cc2csnn2)C[C@H]1c1ccc(F)c(F)c1` [Example 251, 1-((3S,4R)-1-((1,2,3-thiadiazol-4-yl)methyl)-4-(3,4-difluorophenyl)pyrrolidin-3-yl)-3-(1′,4-dimethyl-1-phenyl-1H, 1′H-3,4′-bipyrazol-5-yl)urea], the pIC50 is more than 7.00.
In turn, `COCCN1C[C@@H](NC(=O)Nc2c(C)c(OC[C@@H]3COC(C)(C)O3)nn2-c2ccccc2)[C@H](c2cc(F)cc(F)c2)C1` [Example 392, 1-((3S,4R)-4-(3,5-difluorophenyl)-1-(2-methoxyethyl)pyrrolidin-3-yl)-3-(3-(((R)-2,2-dimethyl-1,3-dioxolan-4-yl)methoxy)-4-methyl-1-phenyl-1H-pyrazol-5-yl)urea] showed a pIC50 of more than 7.00.
Compound `NC(=O)CN1C[C@@H](NC(=O)Nc2c3c(nn2-c2ccccc2)CCC3)[C@H](c2ccccc2)C1` [Example 190, 2-((3R,4S)-3-phenyl-4-(3-(2-phenyl-2,4,5,6-tetrahydrocyclopenta[c]pyrazol-3-yl)ureido)pyrrolidin-1-yl)acetamide] showed a pIC50 of 5.00 to 6.00.
In the case of `COCCN1C[C@@H](NC(=O)Nc2cc(-c3ccccc3)nn2-c2ccccc2)[C@H](c2ccc(F)c(F)c2)C1` [Example 126, 1-((3S,4R)-4-(3,4-difluorophenyl)-1-(2-methoxyethyl)pyrrolidin-3-yl)-3-(1,3-diphenyl-1H-pyrazol-5-yl)urea], the pIC50 is more than 7.00.
`CCc1c(-c2cnn(C)c2)nn(-c2ccccc2)c1NC(=O)N[C@@H]1CN(CCOC)C[C@H]1c1ccc(F)c(F)c1` [Example 311, 1-((3S,4R)-4-(3,4-difluorophenyl)-1-(2-methoxyethyl)pyrrolidin-3-yl)-3-(4-ethyl-1′-methyl-1-phenyl-1H,1′H-[3,4′-bipyrazol]-5-yl)urea] showed a pIC50 of more than 7.00.
Regarding `CCOc1nn(-c2cnccn2)c(NC(=O)N[C@@H]2CN(CCOC)C[C@H]2c2ccc(F)c(F)c2)c1C` [Example 394, 1-((3S,4R)-4-(3,4-difluorophenyl)-1-(2-methoxyethyl)pyrrolidin-3-yl)-3-(3-ethoxy-4-methyl-1-(pyrazin-2-yl)-1H-pyrazol-5-yl)urea], the pIC50 was 6.00 to 7.00.
For the compound `COCCN1C[C@@H](NC(=O)Nc2cn(-c3ccccc3)nc2C(F)(F)F)[C@H](c2ccc(F)c(F)c2)C1` [Example 649, 1-((3S,4R)-4-(3,4-difluorophenyvl)-1-(2-methoxyethyl)pyrrolidin-3-yl)-3-(1-phenyl-3-(trifluoromethyl)-1H-pyrazol-4-yl)urea], the pIC50 is 6.00 to 7.00.
`COCCN1C[C@@H](NC(=O)Nc2c(Cl)c([C@@H]3CCCN3)nn2-c2ccccc2)[C@H](c2ccc(F)c(F)c2)C1` [Example 587, 1-((3S,4R)-4-(3,4-difluorophenyl)-1-(2-methoxyethyl)pyrrolidin-3-yl)-3-(4-chloro-1-phenyl-3-((S)-pyrrolidin-2-yl)-1H-pyrazol-5-yl)urea dihydrochloride] had a pIC50 of more than 7.00.
Under `COCCN1C[C@@H](NC(=O)Nc2c(Br)c(COC3CCN(C(C)=O)CC3)nn2-c2ccccc2)[C@H](c2ccc(F)c(F)c2)C1` [Example 600, 1-(3-((1-acetylpiperidin-4-yloxy)methyl)-4-bromo-1-phenyl-1H-pyrazol-5-yl)-3-((3S,4R)-4-(3,4-difluorophenyl)-1-(2-methoxyethyl)pyrrolidin-3-yl)urea] stands more than 7.00.
`COCCN1C[C@@H](NC(=O)Nc2c(Br)c(C(C)(C)C#N)nn2-c2ccccc2)[C@H](c2ccc(F)c(F)c2)C1` [Example 417, 1-(4-bromo-3-(2-cyanopropan-2-yl)-1-phenyl-1H-pyrazol-5-yl)-3-((3S,4R)-4-(3,4-difluorophenyl)-1-(2-methoxyethyl)pyrrolidin-3-yl)urea]: the pIC50 is more than 7.00.
Compound `COCCN1C[C@@H](NC(=O)Nc2cc(C(C)C)nn2-c2ccccc2)[C@H](c2cc(F)cc(F)c2)C1` [Example 85, 1-((3S,4R)-4-(3,5-difluoro-phenyl)-1-(2-methoxyethyl)pyrrolidin-3-yl)-3-(3-isopropyl-1-phenyl-1H-pyrazol-5-yl)urea] had a pIC50 of more than 7.00.
`COCCN1C[C@@H](NC(=O)Nc2c(F)c(-c3ccccc3)nn2-c2ccccc2)[C@H](c2ccc(F)c(F)c2)C1` [Example 169, 1-((3S,4R)-4-(3,4-difluorophenyl)-1-(2-methoxyethyl)pyrrolidin-3-yl)-3-(4-fluoro-1,3-diphenyl-1H-pyrazol-5-yl)urea] gave a pIC50 of more than 7.00.
The compound `COCCN1C[C@@H](NC(=O)Nc2c(C)c(C)nn2-c2ccccc2)[C@H](c2cccc(C(F)(F)F)c2)C1` [Example 336, 1-(3,4-dimethyl-1-phenyl-1H-pyrazol-5-yl)-3-((3S,4R)-1-(2-methoxyethyl)-4-(3-(trifluoromethyl)phenyl)pyrrolidin-3-yl)urea] had a pIC50 of more than 7.00.
Turning to `CCOc1nn(-c2ccccc2)c(NC(=O)N[C@@H]2CN(Cc3csnn3)C[C@H]2c2ccc(F)c(F)c2)c1C` [Example 249, 1-((3S,4R)-1-((1,2,3-thiadiazol-4-yl)methyl)-4-(3,4-difluorophenyl)pyrrolidin-3-yl)-3-(3-ethoxy-4-methyl-1-phenyl-1H-pyrazol-5-yl)urea], the pIC50 was more than 7.00.
The same measure for `COCCN1C[C@@H](NC(=O)Nc2c(C)c(OC[C@H](O)C(F)(F)F)nn2-c2ccccc2)[C@H](c2cc(F)cc(F)c2)C1` [Example 369, 1-((3S,4R)-4-(3,5-difluorophenyl)-1-(2-methoxyethyl)pyrrolidin-3-yl)-3-(4-methyl-1-phenyl-3-((S)-3,3,3-trifluoro-2-hydroxypropoxy)-1H-pyrazol-5-yl)urea]: more than 7.00; for `COCCN1C[C@@H](NC(=O)Nc2c3c(nn2-c2ccccc2)CCC3)[C@H](c2cncc(F)c2)C1` [Example 337, 1-((3S,4R)-4-(5-fluoropyridin-3-yl)-1-(2-methoxyethyl)pyrrolidin-3-yl)-3-(2-phenyl-2,4,5,6-tetrahydrocyclopenta[c]pyrazol-3-yl)urea]: more than 7.00.
Under `CCOc1nn(-c2ccccc2)c(NC(=O)N[C@@H]2CN(c3ccnc(OC)c3)C[C@H]2c2ccccc2)c1C` [Example 241, 1-(3-ethoxy-4-methyl-1-phenyl-1H-pyrazol-5-yl)-3-((3S,4R)-1-(2-methoxypyridin-4-yl)-4-phenylpyrrolidin-3-yl)urea] stands 6.00 to 7.00.

These data come from patent publication US10323022B2, “Pyrrolidinyl urea, pyrrolidinyl thiourea and pyrrolidinyl guanidine compounds as TrkA kinase inhibitors” (Array BioPharma Inc., priority 2011, dated 2019).
